Laboratory results published in patent publication US12084436B2, “Heterocyclic compound” (Takeda Pharmaceutical Company Limited, priority 2019, dated 2024).

biological target: T1, HDAC6 enzyme (Homo sapiens, UniProt Q9UBN7); test: HDAC6 enzyme inhibitory assay (HDAC-Glo I/II Assay kit, luminescence); assay type: biochemical; conditions: 10 μM test compound; wells without enzyme = 100% inhibition; read-out: HDAC6 inhibitory rate (%) (10 μM)
T1 construct: prepared by transducing full length HDAC6 gene into Sf-9 insect cells; GST; purchased SignalChem; host or cells: Sf-9 insect cells
T1 sequence (Q9UBN7 1-1215): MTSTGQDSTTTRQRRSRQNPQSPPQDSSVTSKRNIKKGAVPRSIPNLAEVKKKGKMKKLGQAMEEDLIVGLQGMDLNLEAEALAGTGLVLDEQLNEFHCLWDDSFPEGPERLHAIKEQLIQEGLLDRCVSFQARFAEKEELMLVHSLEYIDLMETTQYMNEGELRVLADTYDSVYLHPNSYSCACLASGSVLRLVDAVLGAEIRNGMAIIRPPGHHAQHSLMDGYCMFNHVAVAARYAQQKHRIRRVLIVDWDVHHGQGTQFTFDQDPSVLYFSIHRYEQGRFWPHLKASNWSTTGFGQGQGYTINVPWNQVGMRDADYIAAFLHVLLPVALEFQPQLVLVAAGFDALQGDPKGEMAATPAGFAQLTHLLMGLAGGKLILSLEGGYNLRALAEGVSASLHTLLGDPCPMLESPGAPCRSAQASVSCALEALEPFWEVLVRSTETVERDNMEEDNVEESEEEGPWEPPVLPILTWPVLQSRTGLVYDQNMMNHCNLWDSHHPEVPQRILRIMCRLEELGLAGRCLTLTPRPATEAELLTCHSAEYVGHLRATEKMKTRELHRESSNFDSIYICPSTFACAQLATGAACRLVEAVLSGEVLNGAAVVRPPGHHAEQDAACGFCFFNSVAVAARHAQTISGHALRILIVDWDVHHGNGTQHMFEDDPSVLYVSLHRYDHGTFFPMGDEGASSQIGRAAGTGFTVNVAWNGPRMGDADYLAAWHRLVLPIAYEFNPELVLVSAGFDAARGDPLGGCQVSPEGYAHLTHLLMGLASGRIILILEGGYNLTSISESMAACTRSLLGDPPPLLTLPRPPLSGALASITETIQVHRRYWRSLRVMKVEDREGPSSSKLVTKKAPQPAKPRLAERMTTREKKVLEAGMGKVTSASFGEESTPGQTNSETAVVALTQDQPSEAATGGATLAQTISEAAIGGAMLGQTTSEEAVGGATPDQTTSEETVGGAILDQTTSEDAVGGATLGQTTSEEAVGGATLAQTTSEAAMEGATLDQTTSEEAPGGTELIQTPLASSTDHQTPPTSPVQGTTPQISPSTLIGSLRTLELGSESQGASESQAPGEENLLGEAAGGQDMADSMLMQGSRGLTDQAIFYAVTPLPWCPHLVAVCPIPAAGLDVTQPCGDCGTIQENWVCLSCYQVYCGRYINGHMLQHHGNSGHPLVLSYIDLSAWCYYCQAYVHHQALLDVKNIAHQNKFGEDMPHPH
Protocol: HDAC6 Enzyme Inhibitory Assay
HDAC6 enzyme prepared by transducing full length HDAC6 gene into Sf-9 insect cells and purifying by GST affinity column were purchased from SignalChem. Using this enzyme, HDAC6 enzyme inhibitory activities of the compound of the present invention were evaluated. Enzymes were used after preserved at −70° C. HDAC6 enzyme inhibitory activity of the compound of the present invention was measured using HDAC-Glo™ I/II Assay kit (Promega) according to the following experimental method. The test compound diluted with assay buffer (24 mM Tris-HCl (pH 7.5), 1 mM MgCl2, 0.35 mM KCl, 135 mM NaCl, 0.6 mM Glutathione, 0.01% Tween-20) was added to a 384-well plate by each 2 μL. Then, HDAC6 enzyme solution diluted with assay buffer was added thereto by each 4 μL, and the plate was incubated at room temperature for 60 min. After incubated, HDAC substrate-Developer solution prepared according to Promega protocol attached to the assay kit was added to the 384-well plate by each 2 μL, and the enzyme reaction was started. After reacting at room temperature for 20 min, luminescence level was measured using plate reader Envision (PerkinElmer). The inhibitory activity of each compound of Example was calculated as a relative activity value when luminescence level in wells without enzyme is considered as 100% inhibition.

| Compound | inhibition at 10 µM [%] |
| --- | --- |
| CC(C)(C)OC(=O)N(Cc1ccccc1)N1Cc2ccc(-c3nnc(C(F)F)o3)cc2C1=O [Example 4c, tert-butyl benzyl {6-[5-(difluoromethyl)-1,3,4-oxadiazol-2-yl]-1-oxo-1,3-dihydro-2H-isoindol-2-yl}carbamate] | 100 |
| Fc1cc(-c2nnc(C(F)F)o2)cc(-c2ncccc2OCc2ccccc2)c1 [Example 5a, 3-(benzyloxy)-2-{3-[5-(difluoromethyl)-1,3,4-oxadiazol-2-yl]-5-fluorophenyl}pyridine] | 98 |
| O=C1c2cc(-c3nnc(C(F)F)o3)ccc2OCN1Cc1ccccc1 [Example 5b, 3-benzyl-6-[5-(difluoromethyl)-1,3,4-oxadiazol-2-yl]-2,3-dihydro-4H-1,3-benzoxazin-4-one] | 71 |
| CC(C)CN(C(=O)OC(C)(C)C)N1Cc2ccc(-c3nnc(C(F)F)o3)cc2C1=O [Example 5c, tert-butyl {6-[5-(difluoromethyl)-1,3,4-oxadiazol-2-yl]-1-oxo-1,3-dihydro-2H-isoindol-2-yl}(2-methylpropyl)carbamate] | 99 |
| Fc1cc(-c2nnc(C(F)F)o2)cc(-c2nccn2Cc2ccccn2)c1 [Example 6a] | 99 |
| CN1C(=O)c2cc(-c3nnc(C(F)F)o3)ccc2O[C@]1(C)c1ccccc1 [Example 6b, (2R)-6-[5-(difluoromethyl)-1,3,4-oxadiazol-2-yl]-2,3-dimethyl-2-phenyl-2,3-dihydro-4H-1,3-benzoxazin-4-one] | 99 |
| O=C1c2cc(-c3nnc(C(F)F)o3)ccc2CN1NCc1ccc(F)cc1 [Example 6c, 6-[5-(difluoromethyl)-1,3,4-oxadiazol-2-yl]-2-{[(4-fluorophenyl)methyl]amino}-2,3-dihydro-1H-isoindol-1-one] | 99 |
| Fc1cc(-c2nnc(C(F)F)o2)cc(-c2ncccc2OCC2CCOCC2)c1 [Example 7a, 2-{3-[5-(difluoromethyl)-1,3,4-oxadiazol-2-yl]-5-fluorophenyl]-3-[(oxan-4-yl)methoxy]pyridine] | 100 |
| CN1C(=O)c2cc(-c3nnc(C(F)F)o3)ccc2OC1(C)c1ccc(F)cc1 (centres unmarked) [Example 7b, 6-[5-(difluoromethyl)-1,3,4-oxadiazol-2-yl]-2-(4-fluorophenyl)-2,3-dimethyl-2,3-dihydro-4H-1,3-benzoxazin-4-one] | 100 |
| O=C1c2cc(-c3nnc(C(F)F)o3)ccc2CN1N(Cc1ccc(F)cc1)Cc1ccc(F)cc1 [Example 7c, 2-{bis[(4-fluorophenyl)methyl]amino}-6-[5-(difluoromethyl)-1,3,4-oxadiazol-2-yl]-2,3-dihydro-1H-isoindol-1-one] | 100 |
| Fc1cc(-c2nnc(C(F)F)o2)cc(-c2ncccc2OC2CCOCC2)c1 [Example 8a, 2-{3-[5-(difluoromethyl)-1,3,4-oxadiazol-2-yl]-5-fluorophenyl}-3-[(oxan-4-yl)oxy]pyridine] | 98 |
| CCN(Cc1ccccc1)N1Cc2ccc(-c3nnc(C(F)F)o3)cc2C1=O [Example 8c, 2-[benzyl (ethyl)amino]-6-[5-(difluoromethyl)-1,3,4-oxadiazol-2-yl]-2,3-dihydro-1H-isoindol-1-one] | 95 |
| Cc1ccc(COc2cccnc2-c2cc(F)cc(-c3nnc(C(F)F)o3)c2)cc1 [Example 9a] | 79 |
| O=C1c2cc(-c3nnc(C(F)F)o3)ccc2CN1NCc1cnn(C2CC2)c1 [Example 9c, 2-{[(1-cyclopropyl-1H-pyrazol-4-yl)methyl]amino}-6-[5-(difluoromethyl)-1,3,4-oxadiazol-2-yl]-2,3-dihydro-1H-isoindol-1-one] | 97 |
| Cc1cc(COc2cccnc2-c2cc(F)cc(-c3nnc(C(F)F)o3)c2)nn1C [Example 10a, 2-(3-[5-(difluoromethyl)-1,3,4-oxadiazol-2-yl]-5-fluorophenyl}-3-[(1,5-dimethyl-1H-pyrazol-3-yl)methoxy]pyridine] | 96 |
| CN1C(=O)c2cc(-c3nnc(C(F)F)o3)ccc2CN1c1ccc(F)cc1 [Example 10b, 7-[5-(difluoromethyl)-1,3,4-oxadiazol-2-yl]-3-(4-fluorophenyl)-2-methyl-3,4-dihydrophthalazin-1(2H)-one] | 100 |
| O=C1c2cc(-c3nnc(C(F)F)o3)ccc2CN1N(Cc1cnn(C2CC2)c1)Cc1cnn(C2CC2)c1 [Example 10c, 2-{bis[(1-cyclopropyl-1H-pyrazol-4-yl)methyl]amino}-6-[5-(difluoromethyl)-1,3,4-oxadiazol-2-yl]-2,3-dihydro-1H-isoindol-1-one] | 97 |
| Fc1cc(-c2nnc(C(F)F)o2)cc(-c2ncccc2OCc2ccccn2)c1 [Example 11a, 2-{3-[5-(difluoromethyl)-1,3,4-oxadiazol-2-yl]-5-fluorophenyl}-3-[(pyridin-2-yl)methoxy]pyridine] | 94 |
| O=C1NN(C2CCCCC2)Cc2ccc(-c3nnc(C(F)F)o3)cc21 [Example 11b, 3-cyclohexyl-7-[5-(difluoromethyl)-1,3,4-oxadiazol-2-yl]-3,4-dihydrophthalazin-1(2H)-one] | 99 |
| COCCOC(=O)N(Cc1ccc(F)cc1)N1Cc2ccc(-c3nnc(C(F)F)o3)cc2C1=O [Example 11c, 2-methoxyethyl {6-[5-(difluoromethyl)-1,3,4-oxadiazol-2-yl]-1-oxo-1,3-dihydro-2H-isoindol-2-yl}[(4-fluorophenyl)methyl]carbamate] | 99 |
| Fc1cc(-c2nnc(C(F)F)o2)cc(-c2ncccc2OCC2CCOC2)c1 (centres unmarked) [Example 12a, 2-{3-[5-(difluoromethyl)-1,3,4-oxadiazol-2-yl]-5-fluorophenyl}-3-[(oxolan-3-yl)methoxy]pyridine] | 99 |
| CN1C(=O)c2cc(-c3nnc(C(F)F)o3)ccc2OC1(C)c1ccccn1 (centres unmarked) [Example 12b, 6-[5-(difluoromethyl)-1,3,4-oxadiazol-2-yl]-2,3-dimethyl-2-(pyridin-2-yl)-2,3-dihydro-4H-1,3-benzoxazin-4-one] | 98 |
| O=C(CC(F)(F)F)N(Cc1cnn(C2CC2)c1)N1Cc2ccc(-c3nnc(C(F)F)o3)cc2C1=O [Example 12c, N-[(1-cyclopropyl-1H-pyrazol-4-yl)methyl]-N-{6-[5-(difluoromethyl)-1,3,4-oxadiazol-2-yl]-1-oxo-1,3-dihydro-2H-isoindol-2-yl}-3,3,3-trifluoropropanamide] | 98 |
| COCCOc1cccnc1-c1cc(F)cc(-c2nnc(C(F)F)o2)c1 [Example 13a, 2-{3-[5-(difluoromethyl)-1,3,4-oxadiazol-2-yl]-5-fluorophenyl}-3-(2-methoxyethoxy)pyridine] | 92 |
| CN1C(=O)c2cc(-c3nnc(C(F)F)o3)ccc2CC1(C)c1ccc(F)cc1 (centres unmarked) [Example 13b, 7-[5-(difluoromethyl)-1,3,4-oxadiazol-2-yl]-3-(4-fluorophenyl)-2,3-dimethyl-3,4-dihydroisoquinolin-1(2H)-one] | 99 |
| O=C(OCC(F)F)N(Cc1cnn(C2CC2)c1)N1Cc2ccc(-c3nnc(C(F)F)o3)cc2C1=O [Example 13c, 2,2-difluoroethyl [(1-cyclopropyl-1H-pyrazol-4-yl)methyl]{6-[5-(difluoromethyl)-1,3,4-oxadiazol-2-yl]-1-oxo-1,3-dihydro-2H-isoindol-2-yl}carbamate] | 99 |
